Laboratory results taken from patent US7314744B2, “Hyperthermostable protease gene” (Takara Bio Inc., priority 1995, dated 2008).
Square brackets hold non-standard residues; d marks the D form. Peptide text beside a SMILES is read from it. * marks the point of attachment. Sta = CC(C)C[C@H](N)[C@@H](O)CC(=O)O; Isovaleryl = CC(C)CC(=O)*

Experiments:
[1] = tested on: enzyme preparation NAPS-1 (protease PFUS); experiment: Effects of various reagents on enzyme preparation NAPS-1; assay type: biochemical, Pyrococcus furiosus; settings: for enzyme activity of NAPS-1 after treatment with reagent, compared with control (no reagent): treated at 37° C. for 30 minutes, reagent final concentration 1 mM, control 100%; for effect of reagent on activity of NAPS-1, in words: 37° C., 30 minutes, 1 mM reagent
Protocol: (§1) In addition, the enzyme activity of the enzyme preparations NP-1, PT-1, NAPS-1 and NAPS-LS can be photometrically measured using Suc-Ala-Ala-Pro-Phe-p-NA (SEQ ID NO:44) (manufactured by Sigma) as a substrate. That is, an enzyme preparation to be detected for the enzyme activity was appropriately diluted, to 50 μl of the solution was added 50 μl of a 0.1M potassium phosphate buffer (pH 7.0) containing Suc-Ala-Ala-Pro-Phe-p-NA (SEQ ID NO:44) (Suc-Ala-Ala-Pro-Phe-p-NA(SEQ ID NO:44) solution), followed by incubating at 95° C. for 30 minutes. After the reaction was stopped by ice-cooling, the absorbance at 405 nm was measured to quantitate an amount of the generated p-nitroaniline, and the resulting value was compared with that when incubating without the addition of the enzyme preparation, to investigate the enzyme activity. Upon this, a 0.2 mM solution of Suc-Ala-Ala-Pro-Phe-p-NA (SEQ ID NO:44) was used for the enzyme preparations NP-1 and PT-1 and a 1 mM solution was used for the enzyme preparations NAPS-1 and NAPS-1S.
(§2) The effects of various reagents on the enzyme preparations TCES and NAPS-1 obtained by the present invention were investigated. That is, the above enzyme preparations were treated at 37° C. for 30 minutes in the presence of the various reagents at the final concentration of 1 mM, and an aliquot thereof was taken to determine the enzyme activity by the method described in the above (2) to compare with that (control) when no reagent was added.

[2] = tested on: enzyme preparation TCES (protease TCES); experiment: Effects of various reagents on enzyme preparation TCES; assay type: biochemical, Thermococcus celer; settings: for enzyme activity of TCES after treatment with reagent, compared with control (no reagent): treated at 37° C. for 30 minutes, reagent final concentration 1 mM, control 100%; for effect of reagent on activity of TCES, in words: 37° C., 30 minutes, 1 mM reagent
Protocol: (§3) The enzyme activity of the enzyme preparation TC-3 obtained in the present invention can be measured using as a substrate Suc-Leu-Leu-Val-Tyr-MCA (SEQ ID NO:43) (manufactured by Peptide Laboratory). That is, the enzyme preparation to be detected for the enzyme activity is appropriately diluted, to 20 μl of the solution is added 80 μl of a 0.1M sodium phosphate buffer (pH 7.0) containing 62.5 μM Suc-Leu-Leu-Val-Tyr-MCA (SEQ ID NO:43), followed by incubating at 75° C. for 30 minutes. After the reaction is stopped by the addition of 20 μl of 30% acetic acid, the fluorescent intensity is measured at the excitation wavelength of 355 nm and the fluorescence wavelength of 460 nm to quantitate an amount of the generated 7-amino-4-methylcoumarin, and the resulting value is compared with that obtained when incubating without the addition of the enzyme preparation, to investigate the enzyme activity.
as §2

Suc-Ala-Ala-Pro-Phe-p-NA = Suc-Ala-Ala-Pro-Phe-p-NA hydrolyzing activity (absorbance at 405 nm); assay type: biochemical; settings: pH 7.0 and 95° C., 30 minutes
Protocol: as §1, with “Upon this, a 0.2 mM solution of Suc-Ala-Ala-Pro-Phe-p-NA (SEQ ID NO:44) was used for the enzyme preparations NP-1 and PT-1 and a 1 mM solution was used for the enzyme preparations NAPS-1 and NAPS-1S.” left out
(§4) The activity of the enzyme preparations obtained in the present invention on the synthetic peptide substrates is confirmed by a method for measuring the enzyme activity described in the above (2). […] In addition, the activity of the enzyme preparations obtained in the present invention on gelatin can be detected by confirming the degradation of gelatin by an enzyme on the SDS-polyacrylamide gel. […]

Suc-Leu-Leu-Val-Tyr-MCA = Suc-Leu-Leu-Val-Tyr-MCA hydrolyzing activity (fluorescence); assay type: biochemical; settings: pH 7.0 and 75° C., 30 minutes
Protocol: as §3, §4

[3] = Thermostability of enzyme preparation (residual activity after heat-treatment); assay type: physicochemical; settings: 80° C., 20 mM Tris-HCl pH 7.5, 3 hours
Protocol: The thermostability of the enzyme preparation TC-3 obtained by the present invention was investigated. That is, the enzyme preparation was incubated at 80° C. in 20 mM Tris-HCl, pH 7.5 for various periods of time, an appropriate amount thereof was taken to measure the enzyme activity by the method shown in the above (2), and the activity was compared with that when not heat-treated.
In addition, the thermostability of the enzyme preparation NP-1 obtained in the present invention was investigated. That is, the enzyme preparation was incubated at 95° C. in 20 mM Tris-HCl, pH 7.5 for various periods of time, an appropriate aliquot was taken to determine the enzyme activity by the method shown in the above (2), and the enzyme activity was compared with that when not heat-treated. […] This is considered to be because a protease produced as a precursor causes the self-catalytic activation during the heat-treatment.
In addition, the above enzyme preparation NP-1 activated by the heat-treatment was investigated for the thermostability. That is, the enzyme preparation NP-1 was activated by the heat-treatment at 95° C. for 30 minutes, incubated at 95° C. for various periods of time, and the activity was determined as described above to compare with that when not heat-treated. […]

casein = experiment: Casein degradation on casein-containing SDS-polyacrylamide gel; assay type: biochemical; settings: gel with 0.05% casein, 95° C.
gelatin = experiment: Gelatin degradation on gelatin-containing SDS-polyacrylamide gel; assay type: biochemical; settings: gel with 0.05% gelatin, pH 7.0, 95° C., 3 hours
Source text: The activity of the enzyme preparations obtained in the present invention on the synthetic peptide substrates is confirmed by a method for measuring the enzyme activity described in the above (2). That is, the enzyme preparation TC-3 obtained in the present invention has the Suc-Leu-Leu-Val-Tyr-MCA (SEQ ID NO:43) hydrlyzing activity, and the enzyme preparations NP-1, PT-1, NAPS-1 and NAPS-1A have the Suc-Ala-Ala-Pro-Phe-p-NA (SEQ ID NO:44) hydrlyzing activity, respectively. […] In addition, the activity of the enzyme preparations obtained in the present invention on gelatin can be detected by confirming the degradation of gelatin by an enzyme on the SDS-polyacrylamide gel. That is, the enzyme preparation to be detected for the enzyme activity was appropriately diluted, to 10 μl of the sample solution was added 2.5 μl of a sample buffer (50 mM Tris-HCl, pH 7.5, 5% SDS, 5% 2-mercaptoethanol, 0.005% Bromophenol Blue. 50% glycerol), followed by treatment at 100° C. for 5 minutes and electrophoresis using 0.1% SDS-10% polyacrylamide gel containing 0.05% gelatin. […] The presence of the protease activity was detected by the fact that gelatin is hydrolyzed by a protease into peptides which are diffused out of the gel and, consequently, the relevant portion of the gel was not stained with Coomassie Brilliant Blue.

Molecule | enzyme activity of NAPS-1 after treatment with reagent, compared with control (no reagent) [1] | enzyme activity of TCES after treatment with reagent, compared with control (no reagent) [2] | effect of reagent on activity of NAPS-1, in words [1] | other results
CCN1C(=O)C=CC1=O [N-ethylmaleimide] | 102.6% | 82.6% |  | 
O=S(=O)(F)Cc1ccccc1 [PMSF, phenylmethanesulfonyl fluoride] | 0.1% | 8.1% | remarkably decreased activity | effect of reagent on activity of TCES, in words [2]: remarkably decreased activity
CC(C)CC(=O)N[C@H](C(=O)N[C@H](C(=O)N[C@@H](CC(C)C)[C@@H](O)CC(=O)N[C@@H](C)C(=O)N[C@@H](CC(C)C)[C@@H](O)CC(=O)O)C(C)C)C(C)C [Pepstatin] (Isovaleryl-VV[Sta]A[Sta]-OH) | 100.7% | 105.2% |  | 
CC(=O)N[C@@H](CC(C)C)C(=O)N[C@@H](CC(C)C)C(=O)N[C@H](C=O)CCCNC(=N)N [Leupeptin] | 89.3% | 104.5% |  | 
CC(C)C[C@H](NC(=O)[C@@H](NC(=O)N[C@@H](Cc1ccccc1)C(=O)O)[C@@H]1CCN=C(N)N1)C(=O)N[C@H](C=O)Cc1ccccc1 [Chymostatin] | 6.6% | 0% | remarkably decreased activity | effect of reagent on activity of TCES, in words [2]: remarkably decreased activity
O=C(O)CN(CCN(CC(=O)O)CC(=O)O)CC(=O)O [EDTA] | 36.1% | 103.5% | the decrease in the activity was observed | 
TC-3: crude enzyme preparation of protease TCES (Thermococcus celer) obtained from Bacillus subtilis DB104/pSTC3 (protein) MKRLGAVVLALVLVGLLAGTALAAPVKPVVRNNAVQQKNYGLLTPGLFKKVQRMNWNQEVDTVIMFGSYGDRDRAVKVLRLMGAQVKYSYKIIPAVAVKIKARDLLLIAGMIDTGYFGNTRVSGIKFIQEDYKVQVDDATSVSQIGADTVWNSLGYDGSGVVVAIVDTGIDANHPDLKGKVIGWYDAVNGRSTPYDDQGHGTHVAGIVAGTGSVNSQYIGVAPGAKLVGVKVLGADGSGSVSTIIAGVDWVVQNKDKYGIRVINLSLGSSQSSDGTDSLSQAVNNAWDAGIVVCVAAGNSGPNTYTVGSPAAASKVITVGAVDSNDNIASFSSRGPTADGRLKPEVVAPGVDIIAPRASGTSMGTPINDYYTKASGTSMATPHVSGVGALILQAHPSWTPDKVKTALIETADIVAPKEIADIAYGAGRVNVYKAIKYDDYAKLTFTGSVADKGSATHTFDVSGATFVTATLYWDTGSSDIDLYLYDPNGNEVDYSYTAYYGFEKVGYYNPTAGTWTVKVVSYKGAANYQVDVVSDGSLSQSGGGNPNPNPNPNPTPTTDTQTFTGSVNDYWDTSDTFTMNVNSGATKITGDLTFDTSYNDLDLYLYDPNGNLVDRSTSSNSYEHVEYANPAPGTWTFLVYAYSTYGWADYQLKAVVYYG |  |  |  | Suc-Ala-Ala-Pro-Phe-p-NA hydrolyzing activity (Suc-Ala-Ala-Pro-Phe-p-NA): the activity to degrade the substrate was recognized; Suc-Leu-Leu-Val-Tyr-MCA hydrolyzing activity (Suc-Leu-Leu-Val-Tyr-MCA): had the Suc-Leu-Leu-Val-Tyr-MCA (SEQ ID NO:43) hydrolyzing activity; residual activity after heat-treatment [3]: not less than 90%; casein hydrolyzing activity (gel) (casein): had the casein hydrolyzing activity; gelatin hydrolyzing activity (gelatin): had the gelatin hydrolyzing activity
